Tests used:
Assay type in all cases: functional
HT-29 = experiment: Cytotoxicity against human HT-29 cells after 48 hrs by SRB assay; conditions: HT-29, 48 h
RXF 393 = experiment: Cytotoxicity against human RXF393 cells after 48 hrs by SRB assay; conditions: RXF 393, 48 h
NCI-H322M = experiment: Cytotoxicity against human NCI-H322M cells after 48 hrs by SRB assay
RPMI-8226 = experiment: Cytotoxicity against human RPMI8226 cells after 48 hrs by SRB assay; conditions: RPMI-8226, 48 h
NCI-H226 = experiment: Cytotoxicity against human NCI-H226 cells after 48 hrs by SRB assay; conditions: NCI-H226, 48 h
MDA-MB-435 = experiment: Cytotoxicity against human MDA-MB-435 cells after 48 hrs by SRB assay; conditions: MDA-MB-435, 48 h
T47D = experiment: Cytotoxicity against human T47D cells after 48 hrs by SRB assay
SW-620 = experiment: Cytotoxicity against human SW620 cells after 48 hrs by SRB assay; conditions: SW-620, 48 h
MCF7 = experiment: Cytotoxicity against human MCF7 cells after 48 hrs by SRB assay; conditions: MCF7, 48 h
UACC-257 = experiment: Cytotoxicity against human UACC257 cells after 48 hrs by SRB assay; conditions: UACC-257, 48 h
[1] = Cytotoxicity against human ovarian cancer cells after 48 hrs by SRB assay; conditions: Cancer cell lines
MOLT-4 = experiment: Cytotoxicity against human MOLT4 cells after 48 hrs by SRB assay; conditions: MOLT-4, 48 h
HOP-92 = experiment: Cytotoxicity against human HOP92 cells after 48 hrs by SRB assay; conditions: HOP-92, 48 h
IGROV-1 = experiment: Cytotoxicity against human IGROV1 cells after 48 hrs by SRB assay; conditions: IGROV-1, 48 h
Malme-3M = experiment: Cytotoxicity against human MALME-3M cells after 48 hrs by SRB assay
OVCAR-5 = experiment: Cytotoxicity against human OVCAR5 cells after 48 hrs by SRB assay; conditions: OVCAR-5, 48 h
SN12C = experiment: Cytotoxicity against human SN12C cells after 48 hrs by SRB assay
SK-OV-3 = experiment: Cytotoxicity against human SKOV3 cells after 48 hrs by SRB assay; conditions: SK-OV-3, 48 h
SF-539 = experiment: Cytotoxicity against human SF539 cells after 48 hrs by SRB assay; conditions: SF-539, 48 h
DU-145 = experiment: Cytotoxicity against human DU145 cells after 48 hrs by SRB assay; conditions: DU-145, 48 h
[2] = Cytotoxicity against human renal cancer cells after 48 hrs by SRB assay; conditions: Cancer cell lines
SK-MEL-5 = experiment: Cytotoxicity against human SK-MEL-5 cells assessed as cell growth at 10 uM after 48 hrs by SRB assay; conditions: SK-MEL-5, 48 h, read-out: Activity
SK-MEL-2 = experiment: Cytotoxicity against human SK-MEL-2 cells after 48 hrs by SRB assay; conditions: SK-MEL-2, 48 h, read-out: LC50 (the source's name)
OVCAR-8 = experiment: Cytotoxicity against human OVCAR8 cells after 48 hrs by SRB assay; conditions: OVCAR-8, 48 h
CCRF-CEM = experiment: Cytotoxicity against human CCRF-CEM cells after 48 hrs by SRB assay
NCI/ADR-RES = experiment: Cytotoxicity against human NCI/ADR-RES cells after 48 hrs by SRB assay
Hs-578T = experiment: Cytotoxicity against human Hs578T cells after 48 hrs by SRB assay
MDA-MB-468 = experiment: Cytotoxicity against human MDA-MB-468 cells after 48 hrs by SRB assay; conditions: MDA-MB-468, 48 h
SF-268 = experiment: Cytotoxicity against human SF268 cells after 48 hrs by SRB assay; conditions: SF-268, 48 h
NCI-H522 = experiment: Cytotoxicity against human NCI-H522 cells after 48 hrs by SRB assay; conditions: NCI-H522, 48 h
PC-3 = experiment: Cytotoxicity against human PC3 cells after 48 hrs by SRB assay; conditions: PC-3, 48 h
HL-60(TB) = experiment: Cytotoxicity against human HL-60(TB) cells after 48 hrs by SRB assay; conditions: HL-60, 48 h
COLO 205 = experiment: Cytotoxicity against human COLO205 cells after 48 hrs by SRB assay; conditions: COLO 205, 48 h
EKVX = experiment: Cytotoxicity against human EKVX cells after 48 hrs by SRB assay
[3] = Cytotoxicity against human CNS cancer cells after 48 hrs by SRB assay; conditions: Cancer cell lines
[4] = read-out: LC50 (the source's name)

Structure (SMILES): COc1ccc(C2CC(c3ccc4ccccc4c3)=NN2C2=NC(=O)/C(=C3\C(=O)Nc4ccc(Br)cc43)S2)cc1 (stereo not drawn)
- GI50 (HT-29): 199 nM
- TGI (HT-29): 537 nM
- GI50 (RXF 393): 19.7 nM
- TGI (RXF 393): 40.3 nM
- CC50 (RXF 393; [4]): 82.2 nM
- GI50 (NCI-H322M): 36 nM
- TGI (NCI-H322M): 560 nM
- CC50 (NCI-H322M; [4]): > 64100 nM
- GI50 (RPMI-8226): 214 nM
- TGI (RPMI-8226): 1400 nM
- CC50 (RPMI-8226; [4]): > 42200 nM
- GI50 (NCI-H226): 21.5 nM
- TGI (NCI-H226): 173 nM
- CC50 (NCI-H226; [4]): 586 nM
- GI50 (MDA-MB-435): 31.8 nM
- TGI (MDA-MB-435): 106 nM
- CC50 (MDA-MB-435; [4]): 2440 nM
- GI50 (T47D): 23.6 nM
- TGI (T47D): 61 nM
- GI50 (SW-620): 22 nM
- TGI (SW-620): 47.7 nM
- CC50 (SW-620; [4]): 127 nM
- GI50 (MCF7): 26.4 nM
- TGI (MCF7): > 74.7 nM
- CC50 (MCF7; [4]): > 586 nM
- GI50 (UACC-257): 51.1 nM
- TGI (UACC-257): 318 nM
- CC50 (UACC-257; [4]): > 100000 nM
- GI50 [1]: 110 nM
- LC50 (concentration causing 50% net cell kill) [1]: 18800 nM
- TGI [1]: 850 nM
- GI50 (MOLT-4): 30.7 nM
- TGI (MOLT-4): 521 nM
- CC50 (MOLT-4; [4]): > 100000 nM
- GI50 (HOP-92): < 10 nM
- TGI (HOP-92): 24.2 nM
- CC50 (HOP-92; [4]): 1470 nM
- GI50 (IGROV-1): 49.8 nM
- TGI (IGROV-1): 451 nM
- CC50 (IGROV-1; [4]): > 100000 nM
- GI50 (Malme-3M): 27.7 nM
- TGI (Malme-3M): 72.9 nM
- CC50 (Malme-3M; [4]): 640 nM
- GI50 (OVCAR-5): 33.6 nM
- TGI (OVCAR-5): 131 nM
- CC50 (OVCAR-5; [4]): 2110 nM
- GI50 (SN12C): 43.4 nM
- TGI (SN12C): 223 nM
- CC50 (SN12C; [4]): 1700 nM
- GI50 (SK-OV-3): 33 nM
- TGI (SK-OV-3): > 114 nM
- CC50 (SK-OV-3; [4]): > 2840 nM
- GI50 (SF-539): 23.1 nM
- TGI (SF-539): 54.2 nM
- CC50 (SF-539; [4]): 296 nM
- GI50 (DU-145): 39.3 nM
- TGI (DU-145): 752 nM
- CC50 (DU-145; [4]): 25500 nM
- GI50 [2]: 64 nM
- LC50 [2]: 5190 nM
- TGI [2]: 330 nM
- growth at 10 µM (SK-MEL-5): -59.8%
- CC50 (SK-MEL-2): 882 nM
- GI50 (OVCAR-8): 32 nM
- TGI (OVCAR-8): 176 nM
- CC50 (OVCAR-8; [4]): 24100 nM
- GI50 (CCRF-CEM): 32.9 nM
- TGI (CCRF-CEM): 483 nM
- CC50 (CCRF-CEM; [4]): > 100000 nM
- GI50 (NCI/ADR-RES): 675 nM
- TGI (NCI/ADR-RES): > 100000 nM
- CC50 (NCI/ADR-RES; [4]): > 100000 nM
- GI50 (Hs-578T): 64.4 nM
- TGI (Hs-578T): > 1030 nM
- CC50 (Hs-578T; [4]): > 100000 nM
- GI50 (MDA-MB-468): 22.3 nM
- TGI (MDA-MB-468): 62.2 nM
- CC50 (MDA-MB-468; [4]): 190 nM
- GI50 (SF-268): 36.5 nM
- TGI (SF-268): 222 nM
- CC50 (SF-268; [4]): 9630 nM
- GI50 (NCI-H522): 124 nM
- TGI (NCI-H522): 288 nM
- GI50 (PC-3): 26 nM
- TGI (PC-3): 82.7 nM
- CC50 (PC-3; [4]): 5460 nM
- GI50 (HL-60(TB)): 257 nM
- TGI (HL-60(TB)): 3200 nM
- CC50 (HL-60(TB); [4]): > 49300 nM
- GI50 (COLO 205): 21 nM
- TGI (COLO 205): 42 nM
- CC50 (COLO 205; [4]): > 84.1 nM
- GI50 (EKVX): 47.6 nM
- TGI (EKVX): 426 nM
- CC50 (EKVX; [4]): > 100000 nM
- GI50 [3]: 46 nM
- LC50 (concentration giving 50% net cell kill) [3]: 3420 nM
- TGI [3]: 210 nM

Reference: ChEMBL document CHEMBL2169792, “Synthesis of new 4-thiazolidinone-, pyrazoline-, and isatin-based conjugates with promising antitumor activity” (J Med Chem, 2012)
